According to patent publication US20250163057A1, “DCN-1 MODULATING COMPOUNDS AND METHODS OF USE THEREOF” (Cellarity, Inc., priority 2023, published 2025):
pEC50, pIC50: −log10 of the molar value. Like-named read-outs stand apart in the source and are kept apart here.

Tests used:
DCN1 protein = DCN1 protein (Homo sapiens (Human), UniProt Q96GG9); test: Intact Protein MS Analysis with the RapidFire-TOF System (covalent adduct formation); assay type: binding; settings: MS Emax; 400 nM DCN1, 3 hours at room temperature
Method in brief: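 Tag-cleaved human DCN1 (400 nM) expressed in E. coli, in 25 mM Tris-HCl, 200 mM NaCl, 1 mM DTT, was incubated with 11 compound concentrations for 3 h at room temperature and quenched with 0.2% formic acid. Intact-protein Q-TOF MS with deconvolution detected the compound adduct mass.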

[1] = molecular target: DCN1 (DCUND1) protein PONY domain (Homo sapiens (Human), UniProt Q96GG9); test: TR-FRET assay, DCN1 binding with FAM-labeled probe; settings: for IC50: TR FRET IC50 1 hr (nM)
Method in brief: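 Tb-DCN1 PONY domain (E. coli, biotin/streptavidin-Tb); FAM-labelled non-covalent inhibitor probe; TritonX buffer, 200 mM NaCl; 5 nM DCN1 + 20 nM probe or 0.31 nM DCN1 + 900 nM total probe; 0.1% DMSO; TR-FRET read 1, 5, 24 hrs.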

fetal hemoglobin protein = test: HbF HPLC Cell Culture Assay; assay type: cell-based; settings: for pEC50: 336 h, HbF induction, Day 14 of culture; for Hemoglobin HPLC Ymax obs (%): relative to a control compound
Description: A Cell Culture Assay was performed to evaluate the ability of compounds to induce fetal hemoglobin in a cell culture. The amount fetal hemoglobin protein induced was measured by HPLC.
Cell culture began on Day −4 (thaw day). Thaw buffer was prepared by sterile filtering 6 mL of Human Serum Albumin and 144 mL of PBS to make sterile 1% I/PBS. Cells were removed from liquid nitrogen storage and mostly thawed in a 37° C. water bath. Once the ice in the cryovials was melted, cells were transferred quickly into a 50 mL conical tube. Cryovial was rinsed once with thaw buffer and buffer was transferred over to the conical tube as well. Next, doubling volumes of thaw buffer was added to the conical and gently swirled for ˜30 seconds to one minute (for example: 2 mL was added and swirled, then 4 mL, then 8 mL, and so on) until the volume in the conical is 32 mL. Cells and buffer were centrifuged at 300G for 8 minutes, and the supernatant was aspirated. Another 32 mL of thaw buffer was added slowly, swirling the tube. The tube was again centrifuged at 300G for 8 minutes and the supernatant was aspirated. Cells were counted by resuspending in 1 mL of expansion media and counting with AOPI to determine the concentration of cells/mL.
On day 2, Passage & Treatment Day, each cell culture well was counted. Next fresh CD34 Expansion Media was made which contained StemSpan SFEM, CC100 and TPO all from StemCell technologies. Appropriate volume of cells was collected, centrifuged at 300 g and resuspended in fresh media. Cells were plated in treatment format at a density of 200,000 cells/ml, 25,000 cells/well. Finally, they were treated with test compounds as well as positive and negative controls.
On Days 0, 3 & 5 the same process was carried out. First, each cell culture well was counted. Next Phase 1 Erythroid Differentiation Media was freshly made, which contained StemSpan SFEM, 2.5 U/ml EPO, 0.5 mg/ml Holo-TF, 1× Glutamax, 5 μl/ml chemically defined lipid mixture, 10 ng/ml insulin, 50 ng/ml SCF, 10 ng/ml IL-3. Appropriate volume of cells was collected, centrifuged at 300 g and resuspended in fresh media. Cells should now be in fresh wells at a density of 100,000 cells/ml. 60,000 cells, 60,000 cells and 100,000 cells for days 0, 3, 5 respectively. Finally, fresh compound was added to each well at each timepoint (Days 0, 3 & 5).
On Day 7 media and cell culture density changes. Each cell culture well was counted. Next, Phase 2 Erythroid Differentiation Media was freshly made, which contains StemSpan SFEM, 2.5 U/ml EPO, 0.5 mg/ml Holo-TF, 1× Glutamax, 5 μl/ml chemically defined lipid mixture, 10 ng/ml insulin, 50 ng/ml SCF. Appropriate volume of cells was collected, centrifuged at 300 g and resuspended in fresh media. Cells were plated in fresh wells at a density of 500,000 cells/ml, 300,000 cells/well. Finally, fresh compound was added to each well at Day 7 timepoint.
On Day 10 media formulation is once again changed. Each cell culture well was counted. Fresh Phase 3 Erythroid Differentiation Media was made which contains StemSpan SFEM, 2.5 U/ml EPO, 0.5 mg/ml Holo-TF, 1× Glutamax, 5 μl/ml chemically defined lipid mixture, 10 ng/ml insulin. Appropriate volume of cells was collected, centrifuged at 300 g and resuspended in fresh media. Cells were plated in fresh wells at a density of 500,000 cells/ml, 500,000 cells/well. Finally, fresh compound was added to each well at Day 10 timepoint.
On Day 12 the cell density is once again changed. Each cell culture well was counted. Fresh Phase 3 Erythroid Differentiation Media was made. Appropriate volume of cells was collected, centrifuged at 300 g and resuspended in fresh media. Cells were plated in fresh wells at a density of 1,000,000 cells/ml, 1,000,000 cells/well. Finally fresh compound was added to each well.
Day 14 (18th day of experiment) refers to the terminal day of culture. Each cell culture well was counted. Next between 150K and 650K cells were placed in a uniquely labeled 1.5 ml standard tube. […]

[2] = 24 hr after treatment with compound, read-out: TR FRET IC50 24 hr
[3] = read-out: TR FRET IC50 1 hr, 1 hr after treatment with compound
[4] = 1 hr after treatment with compound

Chain of DCN1 (DCUND1) protein PONY domain (Q96GG9 60-248): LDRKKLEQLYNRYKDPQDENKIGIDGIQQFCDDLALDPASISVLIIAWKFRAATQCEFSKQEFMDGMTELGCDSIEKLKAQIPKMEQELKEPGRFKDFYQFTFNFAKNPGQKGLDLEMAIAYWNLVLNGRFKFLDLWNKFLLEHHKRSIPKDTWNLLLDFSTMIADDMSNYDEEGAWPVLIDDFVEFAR
Chain of DCN1 protein (Q96GG9 whole entry): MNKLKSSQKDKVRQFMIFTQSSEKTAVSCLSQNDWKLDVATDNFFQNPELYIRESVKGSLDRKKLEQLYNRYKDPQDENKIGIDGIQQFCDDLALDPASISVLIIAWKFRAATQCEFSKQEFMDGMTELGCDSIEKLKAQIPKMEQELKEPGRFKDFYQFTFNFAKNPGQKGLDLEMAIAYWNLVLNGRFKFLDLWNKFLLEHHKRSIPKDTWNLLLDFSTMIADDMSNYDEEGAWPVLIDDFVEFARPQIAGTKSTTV

SMILES | % Adduct Formation (DCN1 protein) | pIC50 [1, 2] | pIC50 [1, 3] | pEC50 (fetal hemoglobin protein) | Hemoglobin HPLC Ymax obs (%) (fetal hemoglobin protein) | IC50 [1, 4]
CCN1C(=O)[C@@H](NC(=O)c2cccc(C(F)(F)F)c2)[C@@H](c2ccc(F)cc2)c2c(C(=O)N3[C@H](C#N)C[C@H]4C[C@H]43)nn(-c3ccccc3)c21 [Compound I-277] | +++ (MS Emax % adduct formation greater than 80.0 and less than or equal to 100.0) | ≥ 6.70 | ≥ 6.70 | ≥ 7.30 | ++ (Hemoglobin HPLC Ymax greater than 65.0 and less than or equal to 100.0) | 
CCN1C(=O)[C@@H](NC(=O)c2cccc(C(F)(F)F)c2)[C@@H](C2CC2)c2c(C(=O)N3C[C@H](OC)C[C@H]3C#N)nn(C3CCOCC3)c21 [Compound I-377] | +++ (MS Emax % adduct formation greater than 80.0 and less than or equal to 100.0) | ≥ 6.70 | ≥ 6.70 | 6.70 to 7.30 | ++ (Hemoglobin HPLC Ymax greater than 65.0 and less than or equal to 100.0) | 
CCN1C(=O)[C@@H](NC(=O)c2cccc(C(F)(F)F)c2)[C@@H](c2ccc(F)cc2)c2c(CNC(=O)/C=C/C(=O)OC)nn(-c3ccccc3)c21 (racemic) [Compound I-3] | +++ (MS Emax % adduct formation greater than 80.0 and less than or equal to 100.0) | ≥ 6.70 | ≥ 6.70 | 6.70 to 7.30 | ++ (Hemoglobin HPLC Ymax greater than 65.0 and less than or equal to 100.0) | 
CCN1C(=O)[C@@H](NC(=O)c2cccc(C(F)(F)F)c2)[C@@H](c2ccc(F)cc2)c2c(C(=O)N3CCNCC3C#N)nn(C3CCOCC3)c21 (some centres unmarked) [Compound I-334] | +++ (MS Emax % adduct formation greater than 80.0 and less than or equal to 100.0) | ≥ 6.70 | ≥ 6.70 | 6.70 to 7.30 | ++ (Hemoglobin HPLC Ymax greater than 65.0 and less than or equal to 100.0) | 
CCN1C(=O)[C@@H](NC(=O)c2cccc(C(F)(F)F)c2)[C@@H](C2CC2)c2c(C(=O)N3C[C@H](F)C[C@H]3C#N)nn(C3CCOCC3)c21 [Compound I-372] | +++ (MS Emax % adduct formation greater than 80.0 and less than or equal to 100.0) | ≥ 6.70 | ≥ 6.70 | 6.70 to 7.30 | ++ (Hemoglobin HPLC Ymax greater than 65.0 and less than or equal to 100.0) | 
CCN1C(=O)[C@@H](NC(=O)c2cccc(C(F)(F)F)c2)[C@@H](c2ccc(F)cc2)c2c(C(=O)N3CCC[C@H]3C#N)nn(C3CCOCC3)c21 [Compound I-350] | ++ (MS Emax % adduct formation greater than 30.0 and less than or equal to 80.0) | ≥ 6.70 | ≥ 6.70 | ≥ 7.30 | ++ (Hemoglobin HPLC Ymax greater than 65.0 and less than or equal to 100.0) | 
CCN1C(=O)[C@@H](NC(=O)c2cccc(C(F)(F)F)c2)[C@@H](c2ccc(F)cc2)c2c(CN(C)C#N)nn(-c3ccccc3)c21 [Compound I-92] | +++ (MS Emax % adduct formation greater than 80.0 and less than or equal to 100.0) | ≥ 6.70 | 6.00 to 6.70 | < 6.70 | + (Hemoglobin HPLC Ymax greater than or equal to 0.0 and less than or equal to 65.0) | 
CCN1C(=O)[C@@H](NC(=O)c2cccc(C(F)(F)F)c2)[C@@H](c2ccc(F)cc2)c2c([C@@H](C)NC#N)nn(-c3ccccc3)c21 [Compound I-73, N-((4S,5S)-3-((R)-1-cyanamidoethyl)-7-ethyl-4-(4-fluorophenyl)-6-oxo-1-phenyl-4,5,6,7-tetrahydro-1H-pyrazolo[3,4-b]pyridin-5-yl)-3-(trifluoromethyl)benzamide] | +++ (MS Emax % adduct formation greater than 80.0 and less than or equal to 100.0) | ≥ 6.70 | ≥ 6.70 | < 6.70 | ++ (Hemoglobin HPLC Ymax greater than 65.0 and less than or equal to 100.0) | 
CCN1C(=O)[C@@H](NC(=O)c2cccc(C(F)(F)F)c2)[C@@H](c2ccc(F)cc2)c2c(CNC#N)nn(-c3ccccc3)c21 [Compound I-140, N-[(4S, 5S)-3-[(cyanoamino)methyl]-7-ethyl-4-(4-fluorophenyl)-6-oxo-1-phenyl-4,5-dihydropyrazolo[3,4-b]pyridine-5-yl]-3-(trifluoromethyl) benzamide] | +++ (MS Emax % adduct formation greater than 80.0 and less than or equal to 100.0) | ≥ 6.70 | ≥ 6.70 | < 6.70 | + (Hemoglobin HPLC Ymax greater than or equal to 0.0 and less than or equal to 65.0) | 
CCN1C(=O)[C@@H](NC(=O)c2cccc(C(F)(F)F)c2)[C@@H](c2ccc(F)cc2)c2c(NC(=O)C3=CCC3)nn(-c3ccccc3)c21 (racemic) [Compound I-152] | + (MS Emax % adduct formation greater than or equal to 0.0 and less than or equal to 30.0) | ≥ 6.70 | ≥ 6.70 | < 6.70 | ++ (Hemoglobin HPLC Ymax greater than 65.0 and less than or equal to 100.0) | 
CCN1C(=O)[C@@H](NC(=O)c2cccc(C(F)(F)F)c2)[C@@H](c2ccc(F)cc2)c2c(C(=O)N3CCC[C@H]3C#N)nn(-c3ccccc3)c21 [Compound I-278] | +++ (MS Emax % adduct formation greater than 80.0 and less than or equal to 100.0) | ≥ 6.70 |  | < 6.70 | + (Hemoglobin HPLC Ymax greater than or equal to 0.0 and less than or equal to 65.0) | 200 to 1000 nM
CCN1C(=O)[C@@H](NC(=O)c2cccc(C(F)(F)F)c2)[C@@H](C2CC2)c2c(C(=O)N3[C@H](C#N)C[C@H]4C[C@H]43)nn(C3CCOCC3)c21 [Compound I-256, N-((4S,5S)-3-((1R,3S,5R)-3-cyano-2-azabicyclo[3.1.0]hexane-2-carbonyl)-4-cyclopropyl-7-ethyl-6-oxo-1-(tetrahydro-2H-pyran-4-yl)-4,5,6,7-tetrahydro-1H-pyrazolo[3,4-b]pyridin-5-yl)-3-(trifluoromethyl)benzamide] | +++ (MS Emax % adduct formation greater than 80.0 and less than or equal to 100.0) | ≥ 6.70 | ≥ 6.70 | 6.70 to 7.30 | ++ (Hemoglobin HPLC Ymax greater than 65.0 and less than or equal to 100.0) | 
CCN1C(=O)[C@@H](NC(=O)c2cccc(C(F)(F)F)c2)[C@@H](c2ccc(F)cc2)c2c(C(=O)NC3(C#N)CC3)nn(-c3ccccc3)c21 [Compound I-112] | +++ (MS Emax % adduct formation greater than 80.0 and less than or equal to 100.0) | 6.00 to 6.70 |  | < 6.70 | +++ (Hemoglobin HPLC Ymax greater than 100.0) | 1000 to 3000 nM
